Article PMC9334755 (Cancer Biology & Medicine, 2021)

How the values were obtained:
TMD8 xenografts = experiment: TMD8 tumor xenograft in SCID mice; assay type: in vivo
Protocol: TMD8 cells (1.0 × 10^7 cells in 100 µL of serum-free medium containing 40% Matrigel) were injected subcutaneously into SCID mice (6–8 weeks of age), and the tumor volume was monitored twice per week. […] The compounds were formulated in 0.5% methylcellulose containing 0.1% sodium lauryl sulfate. Tumor size and body weight were measured twice per week. All experiments were approved by the institutional animal care and use committee of Shouyao Holdings and were performed in accordance with the guidelines in the U.S. National Institutes of Health Guide for the Care and Use of Laboratory Animals (Approval No. CTA-2015063).
Figure 5 SY-1530 inhibits B-cell malignancy in vivo. (A–D) TMD8 cells were injected subcutaneously into SCID mice (6–8 weeks of age; 8 mice per group). […] Tumor size (A) and body weight (B) were measured […]. On the last day, mice were sacrificed 2.5 h after administration. LC-MS/MS was performed to measure the concentration of SY-1530 in plasma (C), and tumor samples were collected and analyzed with Western blot (D). QD represents administration once daily. Data are shown as mean ± SEM. Statistical analysis was performed with two-way analysis of variance (*P < 0.05; **P < 0.01; ***P < 0.001). […] Tumor size (E), body weight (F), SY-1530 concentration in the plasma (G), and protein expression in tumors (H) were measured. Data are shown as mean ± SEM. Statistical analysis was performed with two-way analysis of variance (*P < 0.05; **P < 0.01; ***P < 0.001).

EPHA3 = EPHA3 (Homo sapiens, UniProt P29320); experiment: Protein kinase panel at 1 µM, EPHA3; assay type: biochemical
BTK [1] = molecular target: T1, BTK (Mus musculus, UniProt P35991); experiment: In vivo occupancy of BTK in mouse splenocytes; conditions: BALB/c mice, oral 50 mg/kg, 12 h after administration
T1 construct: from tissue; host or cells: splenocytes from spleens of normal BALB/c mice
Protocol: Cells were treated as indicated before the addition of a fluorescent probe (FL-SY-1530). After incubation, cells were collected and lysed for 5 min in cell lysis buffer. For analysis of the in vivo occupancy of BTK inhibitors, normal BALB/c mice (6–8 weeks old) were orally administered BTK inhibitors, […] seeded on 12-well plates and incubated with the fluorescent probe for 1 h. Then the samples were subjected to SDS-PAGE, and the gels were scanned with a Typhoon imaging system (excitation at 532 nm and emission at 555 nm). After scanning, the gels were detected with Western blot.
Figure 3 SY-1530 binds BTK in a dose-dependent and time-dependent manner. (A) The content of SY-1530 was measured with LC-MS/MS after incubation with BTK for the indicated time periods. Data are shown as the mean ± SEM. (B) SY-1530 was incubated with different concentrations of BTK, and LC-MS/MS was then performed to detect SY-1530 content. Data are shown as the mean ± SEM of 3 independent experiments. Statistical analysis was performed with Student’s t-test (**P < 0.01, ***P < 0.001). […] Cells were lysed and then analyzed by Western blot and fluorescent gel scanning. […] The concentration of SY-1530 in the plasma was measured with LC-MS/MS. […] Cells were lysed and analyzed by Western blot and fluorescent gel scanning. The concentration of SY-1530 in the plasma was measured with LC-MS/MS.

BTK [2] = molecular target: BTK (Homo sapiens, UniProt Q06187); experiment: LC-MS/MS of free inhibitor after incubation with BTK; assay type: binding
Protocol: In addition, after incubation of BTK with the inhibitors for 4 h, we performed liquid chromatography-tandem mass spectrometry (LC-MS/MS) to detect the abundance of the inhibitors.
(A) The compounds were incubated with BTK for 2 h, after which HTRF assays were performed with dilution of the mixture. The reactions were stopped at different time points. Data are shown as the mean ± SEM. (B) The content of the compounds was measured with LC-MS/MS after incubation with BTK for 4 h. Data are shown as the mean ± SEM (n = 3). Statistical analysis was performed with Student’s t-test (***P < 0.001). […] Cells were lysed and analyzed by Western blot and fluorescent gel scanning.
Data are shown as the mean ± SEM. […] Data are shown as the mean ± SEM of 3 independent experiments. Statistical analysis was performed with Student’s t-test (**P < 0.01, ***P < 0.001). […] Cells were lysed and then analyzed by Western blot and fluorescent gel scanning. […] Cells were lysed and analyzed by Western blot and fluorescent gel scanning.

HER2 = HER2 (Homo sapiens, UniProt P04626); experiment: HTRF kinase assay, HER2
Protocol: Homogeneous time-resolved fluorescence (HTRF) assays were performed with a HTRF® KinEASE™-TK kit (Trevigen).

YES1 = YES1 (Homo sapiens, UniProt P07947); experiment: Protein kinase panel at 1 µM, YES1; assay type: biochemical
Chain of YES1 (P07947 whole entry, species assumed): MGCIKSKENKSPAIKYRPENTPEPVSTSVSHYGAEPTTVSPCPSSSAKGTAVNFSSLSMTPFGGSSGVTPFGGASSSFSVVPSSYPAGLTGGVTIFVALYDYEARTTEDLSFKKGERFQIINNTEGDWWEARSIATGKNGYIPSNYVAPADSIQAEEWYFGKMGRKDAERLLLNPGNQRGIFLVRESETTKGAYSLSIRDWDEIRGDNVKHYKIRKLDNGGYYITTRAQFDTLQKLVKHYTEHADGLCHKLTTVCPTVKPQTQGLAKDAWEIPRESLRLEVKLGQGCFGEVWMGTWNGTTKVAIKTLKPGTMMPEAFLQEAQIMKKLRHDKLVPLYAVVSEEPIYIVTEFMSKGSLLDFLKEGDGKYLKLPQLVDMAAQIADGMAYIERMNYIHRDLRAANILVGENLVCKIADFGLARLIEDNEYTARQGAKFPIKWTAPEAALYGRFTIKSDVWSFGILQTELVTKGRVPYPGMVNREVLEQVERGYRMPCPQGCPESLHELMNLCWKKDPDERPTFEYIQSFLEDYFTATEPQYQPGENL

Chain of HER2 (P04626 23-1255): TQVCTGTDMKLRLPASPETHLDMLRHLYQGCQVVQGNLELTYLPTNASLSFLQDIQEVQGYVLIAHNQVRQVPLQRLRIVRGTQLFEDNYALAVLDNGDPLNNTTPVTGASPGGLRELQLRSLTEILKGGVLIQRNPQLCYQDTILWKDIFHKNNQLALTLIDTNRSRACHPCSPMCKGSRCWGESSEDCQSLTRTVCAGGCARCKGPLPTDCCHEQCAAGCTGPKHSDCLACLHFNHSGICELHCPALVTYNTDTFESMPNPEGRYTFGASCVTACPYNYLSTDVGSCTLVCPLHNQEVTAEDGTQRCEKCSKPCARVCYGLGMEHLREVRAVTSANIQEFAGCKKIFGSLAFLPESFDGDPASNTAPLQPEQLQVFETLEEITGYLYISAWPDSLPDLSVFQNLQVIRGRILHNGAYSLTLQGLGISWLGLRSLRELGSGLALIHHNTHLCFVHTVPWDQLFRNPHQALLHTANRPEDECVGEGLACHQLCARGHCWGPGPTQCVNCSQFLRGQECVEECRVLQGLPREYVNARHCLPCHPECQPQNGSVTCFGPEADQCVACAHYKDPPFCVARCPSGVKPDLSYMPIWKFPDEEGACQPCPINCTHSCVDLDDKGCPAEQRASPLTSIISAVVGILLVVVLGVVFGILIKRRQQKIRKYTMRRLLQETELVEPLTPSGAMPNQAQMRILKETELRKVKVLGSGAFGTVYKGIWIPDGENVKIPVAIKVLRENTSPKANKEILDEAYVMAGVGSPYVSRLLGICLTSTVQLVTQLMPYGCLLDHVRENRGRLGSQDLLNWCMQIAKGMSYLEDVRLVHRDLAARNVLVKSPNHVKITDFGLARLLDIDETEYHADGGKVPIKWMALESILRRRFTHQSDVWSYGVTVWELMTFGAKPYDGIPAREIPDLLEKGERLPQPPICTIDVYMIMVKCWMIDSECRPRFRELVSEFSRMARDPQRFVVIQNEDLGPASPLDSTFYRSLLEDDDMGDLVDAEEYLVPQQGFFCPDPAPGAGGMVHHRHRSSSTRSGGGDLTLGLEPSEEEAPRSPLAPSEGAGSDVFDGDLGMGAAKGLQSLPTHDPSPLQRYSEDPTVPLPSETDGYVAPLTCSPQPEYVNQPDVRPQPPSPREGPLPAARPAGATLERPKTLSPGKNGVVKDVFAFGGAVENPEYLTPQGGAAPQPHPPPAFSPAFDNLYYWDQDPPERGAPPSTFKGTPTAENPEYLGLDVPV
Chain of BTK (Homo sapiens, UniProt Q06187) (Q06187 whole entry): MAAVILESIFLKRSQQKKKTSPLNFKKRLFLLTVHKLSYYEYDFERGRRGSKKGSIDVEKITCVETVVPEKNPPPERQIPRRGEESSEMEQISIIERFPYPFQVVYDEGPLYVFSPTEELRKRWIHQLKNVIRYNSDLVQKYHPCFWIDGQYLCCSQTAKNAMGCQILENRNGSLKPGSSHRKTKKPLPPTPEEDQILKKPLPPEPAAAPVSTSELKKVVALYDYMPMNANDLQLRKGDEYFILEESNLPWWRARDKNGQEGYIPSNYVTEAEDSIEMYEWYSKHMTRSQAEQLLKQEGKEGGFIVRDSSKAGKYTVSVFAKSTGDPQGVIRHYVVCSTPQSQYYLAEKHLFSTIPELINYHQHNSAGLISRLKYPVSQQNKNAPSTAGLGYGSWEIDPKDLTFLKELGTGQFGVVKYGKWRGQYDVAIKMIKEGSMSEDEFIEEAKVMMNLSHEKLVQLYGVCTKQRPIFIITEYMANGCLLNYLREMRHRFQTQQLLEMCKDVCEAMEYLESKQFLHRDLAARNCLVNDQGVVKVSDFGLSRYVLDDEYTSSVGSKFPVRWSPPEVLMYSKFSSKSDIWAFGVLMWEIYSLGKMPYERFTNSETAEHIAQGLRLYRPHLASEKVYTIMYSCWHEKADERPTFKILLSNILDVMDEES
T1 sequence (P35991 whole entry): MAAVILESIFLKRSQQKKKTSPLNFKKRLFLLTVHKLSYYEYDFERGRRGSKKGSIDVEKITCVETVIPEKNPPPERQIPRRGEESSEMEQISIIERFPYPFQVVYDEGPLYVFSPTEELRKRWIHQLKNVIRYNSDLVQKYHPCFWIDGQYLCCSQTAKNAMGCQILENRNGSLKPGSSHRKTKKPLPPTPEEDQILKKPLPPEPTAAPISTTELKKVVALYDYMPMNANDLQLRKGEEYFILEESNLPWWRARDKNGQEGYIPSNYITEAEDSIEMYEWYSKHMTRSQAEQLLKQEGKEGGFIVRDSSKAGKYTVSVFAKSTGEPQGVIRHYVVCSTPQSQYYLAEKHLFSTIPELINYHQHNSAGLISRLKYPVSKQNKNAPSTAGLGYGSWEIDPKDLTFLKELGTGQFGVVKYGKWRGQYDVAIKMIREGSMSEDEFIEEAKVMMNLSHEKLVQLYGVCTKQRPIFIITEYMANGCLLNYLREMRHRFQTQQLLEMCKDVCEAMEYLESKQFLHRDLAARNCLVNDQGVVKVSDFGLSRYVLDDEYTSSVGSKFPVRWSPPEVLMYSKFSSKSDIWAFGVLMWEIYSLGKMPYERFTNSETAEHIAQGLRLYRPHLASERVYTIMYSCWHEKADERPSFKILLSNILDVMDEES
Chain of EPHA3 (P29320 21-983, species assumed): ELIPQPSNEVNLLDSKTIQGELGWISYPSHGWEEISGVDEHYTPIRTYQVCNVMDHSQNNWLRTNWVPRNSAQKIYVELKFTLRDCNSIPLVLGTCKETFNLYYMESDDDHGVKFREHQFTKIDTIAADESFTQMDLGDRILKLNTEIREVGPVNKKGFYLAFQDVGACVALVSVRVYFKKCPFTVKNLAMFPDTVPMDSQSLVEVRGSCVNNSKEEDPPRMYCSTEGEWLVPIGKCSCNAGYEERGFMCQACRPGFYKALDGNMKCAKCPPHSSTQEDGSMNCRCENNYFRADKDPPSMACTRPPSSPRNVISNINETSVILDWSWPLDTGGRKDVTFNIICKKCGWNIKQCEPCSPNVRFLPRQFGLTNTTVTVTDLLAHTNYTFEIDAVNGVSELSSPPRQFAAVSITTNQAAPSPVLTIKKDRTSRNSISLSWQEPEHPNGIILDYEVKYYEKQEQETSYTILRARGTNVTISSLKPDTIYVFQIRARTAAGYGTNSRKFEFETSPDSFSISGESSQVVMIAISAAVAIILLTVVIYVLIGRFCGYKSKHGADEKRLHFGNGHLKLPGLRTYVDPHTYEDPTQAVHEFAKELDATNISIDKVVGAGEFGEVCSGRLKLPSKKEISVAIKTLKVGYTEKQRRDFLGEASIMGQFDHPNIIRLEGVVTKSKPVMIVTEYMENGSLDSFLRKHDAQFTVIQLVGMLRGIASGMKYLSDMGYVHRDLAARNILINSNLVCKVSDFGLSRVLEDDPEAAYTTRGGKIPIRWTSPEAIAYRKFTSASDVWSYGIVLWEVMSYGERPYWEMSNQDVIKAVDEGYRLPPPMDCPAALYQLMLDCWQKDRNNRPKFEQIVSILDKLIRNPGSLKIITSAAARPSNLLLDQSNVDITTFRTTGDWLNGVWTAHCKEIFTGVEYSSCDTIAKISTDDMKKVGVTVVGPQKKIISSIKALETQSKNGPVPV

COC/C=C/C(=O)N1CC[C@@H](n2nc(-c3ccc(Oc4ccccc4)cc3)c(C(N)=O)c2N)C1 [SY-1530]
Inhibitory potency on tumor growth (TMD8 xenografts; 30 mg/kg BID): better inhibitory potency on tumor growth than the same dose of ibrutinib
Anti-tumor activity (TMD8 xenografts; 30 mg/kg QD): comparable to that of ibrutinib at 100 mg/kg
Inhibitory potency on tumor growth (TMD8 xenografts; 100 mg/kg QD, versus ibrutinib 100 mg/kg QD): better inhibitory potency on tumor growth than ibrutinib
Mouse bodyweight (TMD8 xenografts; BID groups): moderate decrease
Tumor growth versus vehicle treated group (TMD8 xenografts; BID, SY-1530 30 or 10 mg/kg, ibrutinib 30 mg/kg): dramatically lower
Bodyweights of mice (TMD8 xenografts; QD groups): moderately changed
Concentration in plasma (TMD8 xenografts; QD groups, 2.5 h after administration on the last day): higher than those of ibrutinib
Tumor volume (TMD8 xenografts; oral, QD, 29 days): significant decrease in tumor volumes
Inhibition (%), EPHA3 (EPHA3): −2%
BTK protein in splenocytes bound by inhibitor (BTK [1]): still bound
Incubation time to saturation of covalent binding to BTK kinase (BTK [2]): 30 min
Decrease of free inhibitor after incubation with BTK (BTK [2]; 4 h incubation): more than 80%
Ratio, HER2 (HER2; IC50 SY-1530 over IC50 ibrutinib): > 2500
IC50 (HER2; read-out: IC50 (nM), HER2, HTRF): > 10000 nM
Inhibition (%), YES1 (YES1): 94%
